Measurements taken from patent publication US8883504B2, “Cell differentiation suppressing agent, method of culturing cells using the same, culture solution, and cultured cell line” (Asahi Kasei Kabushiki Kaisha, priority 2003, dated 2014).

Test system: Oct-3/4 gene
Test: Oct-3/4 gene expression level by real time PCR (ES cell differentiation inhibition assay 2)
Assay type: cell-based, mouse
Conditions: D3ES cells, 7 days; for expression of Oct-3/4 gene in comparison with ES cells cultured in the medium without the differentiation inhibiting agent: GAPDH internal standard, FIG. 6; for effect of keeping the expression of the Oct-3/4 gene relative to ESGRO: compared with 1,000 units/mL of ESGRO
Procedure: For the D3ES cells prepared by the method described in (3) preparation of a mouse ES cell of Example 1, 8×10^4 cells were seeded in a 10 cm-diameter cell culture dish coated previously with a 0.1% aqueous gelatin solution to make 10 mL of the ES cell assay medium. 1 mL of the differentiation inhibiting agent A to F, which were dissolved in dimethylsulfoxide (DMSO) or culture medium or their mixture to make 40 μg/mL per each dish, or ESGRO, which was adjusted to make 10^4 unit/mL, was added, and culturing was carried out at 37° C. in 5% […] incubator for 7 days. To the culture medium was added DMSO to make the final concentration 0.1% or lower.
A total RNA was extracted from the ES cells cultured by the method described in (1) ES cell differentiation inhibition assay 2 as described above, by using ISOGEN (K.K. Nippon Gene, Japan made) by the attached method. First, the medium was removed from the dish after the culture, the cells were washed twice with 10 mL of PBS, and dissolved in 1 mL of ISOGENE. After leaving stand at room temperature for 5 minutes, the solution was collected in a 1.5 mL Eppendorf tube. 0.2 mL of chloroform (Wako Pure Chemical Industries made) was added, shaken for 15 seconds and, then, left stand at room temperature for 2 or 3 minutes. The solution was centrifuged at 4° C. at 10000 rpm for 10 minutes by using a micro centrifuge (TOMY SEIKO Corp. made). 400 μL of the supernatant was transferred to a fresh 1.5 mL Eppendorf tube, 500 μL of isopropanol (Wako Pure, Chemical Industries made) was added, and left stand at room temperature for 10 minutes, and, then, centrifuged at 4° C. at 10000 rpm for 10 minutes by using the micro centrifuge. After the supernatant was removed, 1 mL of a 70% aqueous ethanol solution was added followed by shaking and, then, centrifugation was carried out at 4° C. at 10000 rpm for about 5 minutes by using, the micro centrifuge. After the supernatant was removed, a precipitation was dried and dissolved in 30 μL of distilled water to obtain the total RNA solution.
2 μg of the thus obtained total RNA was used as a template to synthesize a cDNA according to the attached protocol by using Deoxyribonuclease I (Amplification Grade)(Invitrogen Corp. made), Oligo(dT) 12-18 primer (Invitrogen Corp. made, 18418-012) and Omniscript reverse transcriptase (QIAGEN Corp, made). Thus, a reaction solution was prepared by adding 1 μL of 10× DNaseI Reaction Buffer, 1 μL of 10× DNaseI (all were made by Invitrogen Corp.) and distilled water to 2 μg of total RNA to make 10 μL in total, and the mixture was incubated at room temperature for 10 minutes. 1 μL of 25 mM EDTA solution was added and heated at 65° C. for 10 minutes. The mixture was cooled to room temperature, and then, 2 μL of 10× Buffer RT, 2 μL of 5 mM dNTP Mix, 2 μL of Oligo(dT) 12-18 primer, 0.25 μL of RNaseOUT (Invitrogen Corp. made, 10777-019) and 1 μL of Omniscript Reverse Transcriptase were added, and RNase-free purified water was added to give the total volume of 20 μL, and the mixture was incubated at 37° C. for 60 minutes to obtain cDNA solution. A portion of the synthesized cDNA obtained in such the way was diluted 5 folds with distilled water, and 2 μL of the solution was used as the template to conduct PCR by using Light Cycler-Fast Start DNA Master SYBR Green I Kit (Roche Diagnostics Corp. made) according to the attached protocol. The expression levels of the Oct-3/4 gene and glyceraldehyde-3-phosphate dehydrogenase (GAPDH) gene as the internal standard were measured. For amplifying the Oct-3/4 gene, sense primer OCT3 up (SEQ ID No.: 1) and antisense primer Oct3 down (SEQ ID No.: 2) were used, and for amplifying the GAPDH gene, sense primer GAPDH up (SEQ ID No.: 3) and antisense primer GAPDH down (SEQ ID No.: 4) were used. The composition of the PCR reaction solution and the reaction condition will be each presented below.

Row | Compound | expression of Oct-3/4 gene in comparison with ES cells cultured in the medium without the differentiation inhibiting agent | effect of keeping the expression of the Oct-3/4 gene relative to ESGRO
1 | COc1ccc(N=NC(C(N)=O)=C2NC(C)(C)Cc3ccccc32)cc1 [F, 2-(3,3-dimethyl-3,4-dihydro-2H-isoquinoline-1-ylidene)-2-(4-methoxy-phenylazo)-acetamide] | significantly promoted | comparable with 1,000 units/mL of ESGRO
2 | CC1(C)Cc2ccccc2C(=C(N=Nc2cccc(Cl)c2)C(N)=O)N1 [C, 2-(3-chloro-phenylazo)-2-(3,3-dimethyl-3,4-dihydro-2H-isoquinoline-1-ylidene)-acetamide] | maintained the expression of the Oct-3/4 gene | 
3 | CC1(C)Cc2ccccc2C(=C(N=Nc2cccc([N+](=O)[O-])c2)C(N)=O)N1 [E, 2-(3,3-dimethyl-3,4-dihydro-2H-isoquinoline-1-ylidene)-2-(3-nitro-phenylazo)-acetamide] | maintained the expression of the Oct-3/4 gene | 
4 | CC(=O)c1ccc(/N=N/C(C(N)=O)=C2/NC(C)(C)Cc3ccccc32)cc1 [compound B, 2-(4-acetyl-phenylazo)-2-(3,3-dimethyl-3,4-dihydro-2H-isoquinoline-1-ylidene)-acetamide] | significantly promoted | comparable with 1,000 units/mL of ESGRO
